Patent publication US20250213707A1, “COMPOUND FOR INCREASING EFFICACY OF ONCOLYTIC VIRUSES” (ABLEVIA BIOTECH GMBH, priority 2022, published 2025)
Ends that are not written are not given here.

Assays:
[1] = system: polyclonal antibody ab6982; assay: Epitope mapping of polyclonal antibody ab6982 against cyclic peptides of Ad5 fiber and hexon (peptide array); type: binding, rabbits; conditions: cyclic peptides of fiber protein (clusters 1-7)
[2] = system: IgG from human donors (anti-AAV antibodies); assay: Screen for anti-AAV antibodies in human sera, 2452 linear 15-amino-acid AAV peptides on microarrays (Table 1); type: binding; parameters: key to group I: X: the deduplicated aggregate of the respective top 10 peptide hits for each donor was compiled and designated as group I; key to group II: X: the deduplicated aggregate of the respective top 25 peptide hits for each donor was compiled and designated as group II; key to group III: X: the deduplicated aggregate of the respective top 50 peptide hits for each donor was compiled and designated as group III; conditions: human donor IgG binding to linear 15-amino-acid AAV peptides on microarray, fluorescence; for group II: membership in deduplicated aggregate of top 25 peptide hits for each donor; for group III: membership in deduplicated aggregate of top 50 peptide hits for each donor; for group I: membership in deduplicated aggregate of top 10 peptide hits for each donor
In short: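 Peptide hits were grouped I to IV by pooling each donor's top 10, 25, 50 or 250 background-corrected fluorescence signals, after deduplication. Signals came from donor IgG, purified on protein G, bound to arrayed 15-residue linear peptides (2452 total) spanning 16 AAV sequences.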

Sequence	antibody binding signal ranking from the microarray experiment [1]	group II [2]	group III [2]	group I [2]
LQRGNRQAATADVN (REGION 1..14: note = peptide derived from viral capsid protein) [SEQ ID NO: 2026]	044	X	X	–
LSKTANDNNNSNFP (REGION 1..14: note = peptide derived from viral capsid protein) [SEQ ID NO: 1988]	001	X	X	X
MASHKDDEEKFFPM [SEQ ID NO: 1989]	002	X	X	X
MATNNQSLALGETT [SEQ ID NO: 2022]	021	X	X	–
MNPGPAMASHKEGE [SEQ ID NO: 2017]	011	X	X	–
MVPQYGYCGVVTGK [SEQ ID NO: 2035]	070	X	X	–
NEADAAALEHDKAY (REGION 1..14: note = peptide derived from viral capsid protein) [SEQ ID NO: 2004]	163	X	X	–
NLQAANLALGETTR [SEQ ID NO: 2020]	016	X	X	–
NNFQFSYTFEDVPF (REGION 1..14: note = peptide derived from viral capsid protein) [SEQ ID NO: 1990]	003	X	X	X
NPVATEQYGSVSTN (REGION 1..14: note = peptide derived from viral capsid protein) [SEQ ID NO: 2005]	004	X	X	–
NQTDRNAFYCLEYF [SEQ ID NO: 2036]	072	X	X	–
PEPADVFMIPQYGY [SEQ ID NO: 2029]	029	X	X	–
PQILIKNTPVPANP (REGION 1..14: note = peptide derived from viral capsid protein) [SEQ ID NO: 2006]	006	X	X	–
PVDQSPQEPDSSSG [SEQ ID NO: 1991]	005	X	X	X
PVPADPPTAFNKDK (REGION 1..14: note = peptide derived from viral capsid protein) [SEQ ID NO: 2018]	012	X	X	–
PVPADPPTTFNQSK (REGION 1..14: note = peptide derived from viral capsid protein) [SEQ ID NO: 2027]	047	X	X	–
PVPANPPTTFSPAK [SEQ ID NO: 1992]	010	X	X	X
PYLRYHADAEFQER [SEQ ID NO: 2013]	118	X	X	–
QIFADSSYELPYVM [SEQ ID NO: 2041]	112	X	X	–

Sequence	antibody binding signal ranking from the microarray experiment [1]	group II [2]	group III [2]	group I [2]
QQRLSKTANDNNNS [SEQ ID NO: 1993]	019	X	X	X
QQRVSKTSADNNNS (REGION 1..14: note = peptide derived from viral capsid protein) [SEQ ID NO: 2007]	015	X	X	–
QSSNTAPTTRTVND (REGION 1..14: note = peptide derived from viral capsid protein) [SEQ ID NO: 1994]	024	X	X	X
QTGDADSVPDPQPL (not fully specified) [SEQ ID NO: 2008]	056	X	X	–
QVKEVTTNDGVTTI (REGION 1..14: note = peptide derived from viral capsid protein) [SEQ ID NO: 2048]	173	X	X	–
RDTDMFGQIADNNQ [SEQ ID NO: 2037]	073	X	X	–
RDWQRLINNNWGLR [SEQ ID NO: 2038]	082	X	X	–
RVSKTKTDNNNSNF [SEQ ID NO: 2049]	178	X	X	–
SDSEYQLPYVLGSA [SEQ ID NO: 2050]	197	X	X	–
SKTANDNNNSNFPW (REGION 1..14: note = peptide derived from viral capsid protein) [SEQ ID NO: 1995]	035	X	X	X
SNYNKSVNVDFTVD (REGION 1..14: note = peptide derived from viral capsid protein) [SEQ ID NO: 1996]	040	X	X	X
SQSLDRLMNPLLDQ [SEQ ID NO: 2054]	028	X	X	–
STGQVAVQIEWEIE [SEQ ID NO: 2055]	049	X	X	–
THSTLDGRWSALTP (REGION 1..14: note = peptide derived from viral capsid protein) [SEQ ID NO: 2042]	117	X	X	–
TTSANNLLFTSEEE [SEQ ID NO: 2056]	078	X	X	–
TTSGETLNQGNAAT [SEQ ID NO: 2057]	079	X	X	–
TTSGTTNQSRLLFS (REGION 1..14: note = peptide derived from viral capsid protein) [SEQ ID NO: 1997]	041	X	X	X
TVQIFADSSYELPY (REGION 1..14: note = peptide derived from viral capsid protein) [SEQ ID NO: 2043]	136	X	X	–
TVQIFADSTYELPY [SEQ ID NO: 2039]	093	X	X	–
